Data as given in patent publication US20250236608A1, “EGFR INHIBITORS” (Blueprint Medicines Corporation, priority 2022, published 2025).

Tests used:
EGFR L858R = EGFR L858R (Homo sapiens (Human), UniProt P00533, L858R); assay: Biochemical EGFR inhibition assay, EGFR L858R; conditions: Caliper mobility shift; 1.0 mM ATP or ATP Km; read-out: Enz EGFR_L858R IC50
EGFR (d746-750) = EGFR (d746-750) (Homo sapiens (Human), UniProt P00533, DEL746-750); assay: Biochemical EGFR inhibition assay, EGFR (d746-750); conditions: Caliper mobility shift; 1.0 mM ATP or ATP Km; read-out: Enz EGFR_Exon19-del746-750 IC50
[1] = target: pEGFR (Tyr1068) in PC-9 cells (Ex19Del) (Homo sapiens (Human), UniProt P00533, DEL746-750); assay: PC-9 pEGFR AlphaLISA assay; format: cell-based; conditions: 4 hours incubation, p-EGFR (Tyr1068) AlphaLISA, read-out: Ext pEGFR_PC-9 Ex19Del IC50
Procedure, shortened: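 PC-9 cells seeded overnight in phenol-free DMEM with 10% FBS, then treated 4 h at 37°C with a 10-point, 4-fold compound series. Lysates assayed for pEGFR Tyr1068 by AlphaLISA SureFire; IC50 from % inhibition vs log concentration.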

pEGFR (Tyr1068) in PC-9 cells (Ex19Del), sequence (P00533 other isoform, or with tags, fused parts or gaps del 746-750): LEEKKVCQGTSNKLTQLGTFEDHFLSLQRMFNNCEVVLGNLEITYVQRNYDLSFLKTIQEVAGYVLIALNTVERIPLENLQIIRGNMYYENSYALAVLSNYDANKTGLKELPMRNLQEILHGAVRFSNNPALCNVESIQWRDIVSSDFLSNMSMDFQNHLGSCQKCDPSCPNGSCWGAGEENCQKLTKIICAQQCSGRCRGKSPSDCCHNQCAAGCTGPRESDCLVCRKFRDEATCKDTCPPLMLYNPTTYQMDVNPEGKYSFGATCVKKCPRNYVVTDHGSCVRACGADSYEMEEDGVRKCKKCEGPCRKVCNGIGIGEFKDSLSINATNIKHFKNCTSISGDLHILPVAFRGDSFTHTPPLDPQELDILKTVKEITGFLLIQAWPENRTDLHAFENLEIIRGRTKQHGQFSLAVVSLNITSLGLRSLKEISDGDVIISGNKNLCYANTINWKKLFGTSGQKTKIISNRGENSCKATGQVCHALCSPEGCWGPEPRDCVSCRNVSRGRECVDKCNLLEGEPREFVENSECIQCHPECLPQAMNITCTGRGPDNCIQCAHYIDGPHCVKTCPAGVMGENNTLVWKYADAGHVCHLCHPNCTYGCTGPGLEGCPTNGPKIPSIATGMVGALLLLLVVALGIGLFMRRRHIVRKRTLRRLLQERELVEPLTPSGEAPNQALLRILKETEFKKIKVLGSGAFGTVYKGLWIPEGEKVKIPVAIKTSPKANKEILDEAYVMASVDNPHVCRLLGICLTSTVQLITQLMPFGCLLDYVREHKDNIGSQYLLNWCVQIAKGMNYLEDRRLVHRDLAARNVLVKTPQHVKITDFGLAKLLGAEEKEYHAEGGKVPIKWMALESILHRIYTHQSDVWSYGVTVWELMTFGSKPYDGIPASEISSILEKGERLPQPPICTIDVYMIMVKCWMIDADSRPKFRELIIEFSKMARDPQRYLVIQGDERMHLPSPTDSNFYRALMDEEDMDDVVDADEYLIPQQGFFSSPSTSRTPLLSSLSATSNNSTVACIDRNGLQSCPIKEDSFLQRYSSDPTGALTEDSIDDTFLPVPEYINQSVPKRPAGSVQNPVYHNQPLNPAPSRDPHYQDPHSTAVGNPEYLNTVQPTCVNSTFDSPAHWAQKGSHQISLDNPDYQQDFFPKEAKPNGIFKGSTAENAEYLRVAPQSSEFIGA
EGFR L858R, sequence (P00533 25-1210 L858R): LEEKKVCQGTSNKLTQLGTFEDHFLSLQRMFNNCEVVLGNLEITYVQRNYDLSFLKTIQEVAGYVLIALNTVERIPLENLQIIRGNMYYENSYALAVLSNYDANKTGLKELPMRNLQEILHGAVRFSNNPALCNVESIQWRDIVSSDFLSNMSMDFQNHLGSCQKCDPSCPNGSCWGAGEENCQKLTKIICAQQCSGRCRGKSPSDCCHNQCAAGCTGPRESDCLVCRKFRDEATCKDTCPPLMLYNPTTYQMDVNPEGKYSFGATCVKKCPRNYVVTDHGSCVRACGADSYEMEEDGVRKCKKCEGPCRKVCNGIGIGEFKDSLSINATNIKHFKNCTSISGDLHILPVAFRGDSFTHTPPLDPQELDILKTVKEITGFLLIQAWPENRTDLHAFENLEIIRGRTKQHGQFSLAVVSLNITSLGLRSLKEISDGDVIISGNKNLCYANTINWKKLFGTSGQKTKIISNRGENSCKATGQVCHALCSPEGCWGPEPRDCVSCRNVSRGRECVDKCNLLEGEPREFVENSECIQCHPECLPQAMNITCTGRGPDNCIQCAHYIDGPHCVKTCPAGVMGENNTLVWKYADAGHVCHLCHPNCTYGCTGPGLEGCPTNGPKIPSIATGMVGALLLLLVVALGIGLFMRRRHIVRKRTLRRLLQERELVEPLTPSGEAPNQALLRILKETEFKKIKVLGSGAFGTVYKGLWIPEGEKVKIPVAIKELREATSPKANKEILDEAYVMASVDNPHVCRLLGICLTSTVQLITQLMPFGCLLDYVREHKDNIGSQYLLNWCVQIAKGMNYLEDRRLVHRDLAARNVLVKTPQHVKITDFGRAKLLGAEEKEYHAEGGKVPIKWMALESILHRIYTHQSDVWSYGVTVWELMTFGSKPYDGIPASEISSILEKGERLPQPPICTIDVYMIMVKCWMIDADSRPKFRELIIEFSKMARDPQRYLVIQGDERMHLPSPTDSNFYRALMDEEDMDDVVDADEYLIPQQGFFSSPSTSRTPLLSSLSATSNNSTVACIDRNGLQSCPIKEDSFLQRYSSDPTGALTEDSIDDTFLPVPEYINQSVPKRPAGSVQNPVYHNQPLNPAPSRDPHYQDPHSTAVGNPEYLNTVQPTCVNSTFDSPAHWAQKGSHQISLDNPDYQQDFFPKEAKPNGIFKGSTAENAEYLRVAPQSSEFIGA
EGFR (d746-750), sequence (P00533 other isoform, or with tags, fused parts or gaps del 1-694/del 746-750 limits assumed): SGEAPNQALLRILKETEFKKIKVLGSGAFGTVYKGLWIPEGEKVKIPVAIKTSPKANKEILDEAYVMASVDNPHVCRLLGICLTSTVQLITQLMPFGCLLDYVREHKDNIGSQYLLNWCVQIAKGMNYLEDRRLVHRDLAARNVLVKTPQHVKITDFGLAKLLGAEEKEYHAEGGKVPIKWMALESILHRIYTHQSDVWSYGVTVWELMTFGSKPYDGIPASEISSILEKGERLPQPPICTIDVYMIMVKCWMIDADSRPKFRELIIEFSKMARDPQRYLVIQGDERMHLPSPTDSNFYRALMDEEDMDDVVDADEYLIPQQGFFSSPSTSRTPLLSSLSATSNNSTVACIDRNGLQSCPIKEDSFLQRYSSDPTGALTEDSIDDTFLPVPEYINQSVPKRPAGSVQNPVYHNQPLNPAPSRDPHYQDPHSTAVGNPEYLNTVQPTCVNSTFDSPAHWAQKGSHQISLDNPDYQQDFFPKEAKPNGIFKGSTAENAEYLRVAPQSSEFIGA

SMILES	IC50 (EGFR L858R) [nM]	IC50 (EGFR (d746-750)) [nM]	IC50 [1] [nM]
CCn1cc(-c2ncnc3cc(OC)c(NC(=O)[C@@]45COC[C@@H]4C5)cc23)c(-c2ccccc2)n1 [Example 288, (1R,5R)—N-(4-(1-ethyl-3-phenyl-1H-pyrazol-4-yl)-7-methoxyquinazolin-6-yl)-3-oxabicyclo[3.1.0]hexane-1-carboxamide]	1.9	1.2	2
COc1cc2ncnc(-c3cn(CC(F)F)nc3-c3ccc(F)cc3)c2cc1C1(O)CC1 [Example 489]	6.9	3.9	13.8
COc1cc2ncnc(-c3cn(C)nc3-c3ccccc3)c2cc1OC(=O)N1CCNCC1(C)C [Example 86, 7-methoxy-4-(1-methyl-3-phenyl-1H-pyrazol-4-yl)quinazolin-6-yl 2,2-dimethylpiperazine-1-carboxylate]	5	2.5	5.8
COc1cc2ncnc(-c3cn(C)nc3-c3ccccc3F)c2cc1OC(=O)N1CCOC[C@@H]1C [Example 74, 4-(3-(2-fluorophenyl)-1-methyl-1H-pyrazol-4-yl)-7-methoxyquinazolin-6-yl (S)-3-methylmorpholine-4-carboxylate]	829	662	4.5
COc1cc2ncnc(-c3cn(C)nc3-c3ccccc3)c2cc1NC(=O)C1C2COCC21 (stereo not drawn) [Example 223, N-(7-methoxy-4-(1-methyl-3-phenyl-1H-pyrazol-4-yl)quinazolin-6-yl)-3-oxabicyclo[3.1.0]hexane-6-carboxamide]	2.9	2.1	3.2
COc1cc2ncnc(-c3cn(C)nc3-c3ccccc3)c2cc1NC(=O)c1cccnc1C [Example 195, N-(7-methoxy-4-(1-methyl-3-phenyl-1H-pyrazol-4-yl)quinazolin-6-yl)-2-methylnicotinamide]	3.8	1.6	5.9
COc1cc2ncnc(-c3cn(C)nc3-c3ccccc3)c2cc1NC(=O)C1(C)CCCO1 (stereo not drawn) [Example 224, N-(7-methoxy-4-(1-methyl-3-phenyl-1H-pyrazol-4-yl)quinazolin-6-yl)-2-methyltetrahydrofuran-2-carboxamide]	5.1	3	3.9
CCn1ncc(-c2ncnc3cc(-c4cnn(C)c4)ccc23)c1-c1ccccc1 [Example 495]	1.2	2.3	15.3
COc1cc2ncnc(-c3cn(C)nc3-c3ccccc3)c2cc1OC(=O)N1CCO[C@@H](C)[C@@H]1C [Example 72, 7-methoxy-4-(1-methyl-3-phenyl-1H-pyrazol-4-yl)quinazolin-6-yl (2S,3S)-2,3-dimethylmorpholine-4-carboxylate]	3.8	1.7	5.1
COc1cc2ncnc(-c3cn(CC(F)F)nc3-c3ccccc3)c2nc1OC [Example 20, 4-(1-(2,2-difluoroethyl)-3-phenyl-1H-pyrazol-4-yl)-6,7-dimethoxypyrido[3,2-d]pyrimidine]	1.2	0.5	0.9
Cc1nnc([C@H](C)Oc2nc3c(-c4cn(C)nc4-c4ccccc4)ncnc3cc2OC2CC2)o1 (single isomer, unassigned) [Example 477, 2-[(1R)-1-{[7-cyclopropoxy-4-(1-methyl-3-phenyl-1H-pyrazol-4-yl)pyrido[3,2-d]pyrimidin-6-yl]oxy}ethyl]-5-methyl-1,3,4-oxadiazole or 2-[(1S)-1-{[7-cyclopropoxy-4-(1-methyl-3-phenyl-1H-pyrazol-4-yl)pyrido[3,2-d]pyrimidin-6-yl]oxy}ethyl]-5-methyl-1,3,4-oxadiazole]	7.7	9	25
CCn1cc(-c2ncnc3cc(OC)c(NC(=O)c4cccnc4)cc23)c(-c2ccccc2)n1 [Example 332, N-(4-(1-ethyl-3-phenyl-1H-pyrazol-4-yl)-7-methoxyquinazolin-6-yl) nicotinamide]	2.3	1.6	2.1
COc1cc2ncnc(-c3cn(C)nc3-c3ccccc3F)c2cc1OC(=O)N1CCN(C)C[C@@H]1C [Example 66, 4-(3-(2-fluorophenyl)-1-methyl-1H-pyrazol-4-yl)-7-methoxyquinazolin-6-yl (S)-2,4-dimethylpiperazine-1-carboxylate]	2.9	2.2	5.2
COc1cc2ncnc(-c3cn(C)nc3-c3c(F)cccc3F)c2cc1NC(=O)C1CC1 [Example 338, N-(4-(3-(2,6-difluorophenyl)-1-methyl-1H-pyrazol-4-yl)-7-methoxyquinazolin-6-yl)cyclopropanecarboxamide]	1.9	1.2	2.3
CCC(=O)Nc1cc2c(-c3cn(C)nc3-c3ccccc3)ncnc2cc1C#CCN1CCOCC1 [Example 451, N-(4-(1-methyl-3-phenyl-1H-pyrazol-4-yl)-7-(3-morpholinoprop-1-yn-1-yl)quinazolin-6-yl)propionamide]	3.5	2	2.8
CCOc1cc2ncnc(-c3cn(C)nc3-c3ccccc3)c2cc1OC1CCOCC1 [Example 24, 7-ethoxy-4-(1-methyl-3-phenyl-1H-pyrazol-4-yl)-6-((tetrahydro-2H-pyran-4-yl)oxy)quinazoline]	1.3	0.8	2.6

The next lines start with the values.

IC50 (EGFR L858R) [nM]	IC50 (EGFR (d746-750)) [nM]	IC50 [1] [nM]	SMILES
1.2	0.9	0.7	COc1cc2ncnc(-c3cn(C)nc3-c3ccccc3)c2nc1OC(C)c1cocn1 (stereo not drawn) [Example 28, 4-(1-((7-methoxy-4-(1-methyl-3-phenyl-1H-pyrazol-4-yl)pyrido[3,2-d]pyrimidin-6-yl)oxy)ethyl)oxazole]
1.8	0.9	2	COc1cc2ncnc(-c3cn(C4CC4)nc3-c3ccccc3)c2nc1NC(=O)c1cnn(C(F)(F)F)c1 [Example 365, N-(4-(1-cyclopropyl-3-phenyl-1H-pyrazol-4-yl)-7-methoxypyrido[3,2-d]pyrimidin-6-y1)-1-(trifluoromethyl)-1H-pyrazole-4-carboxamide]
3.1	1.9	2.8	COc1cc2ncnc(-c3cn(C)nc3-c3ccccc3)c2nc1NC(=O)C12CC(C1)C2 [Example 309, N-(7-methoxy-4-(1-methyl-3-phenyl-1H-pyrazol-4-yl)pyrido[3,2-d]pyrimidin-6-yl)bicyclo[1.1.1]pentane-1-carboxamide]
1.3	0.6	1.2	COc1cc2ncnc(-c3cn(C)nc3-c3ccccc3)c2nc1O[C@H](C)c1cscn1 (single isomer, unassigned) [Example 49, (R)-4-(1-((7-methoxy-4-(1-methyl-3-phenyl-1H-pyrazol-4-yl)pyrido[3,2-d]pyrimidin-6-yl)oxy)ethyl)thiazole or (S)-4-(1-((7-methoxy-4-(1-methyl-3-phenyl-1H-pyrazol-4-yl)pyrido[3,2-d]pyrimidin-6-yl)oxy)ethyl)thiazole]
1.8	1	2.7	COc1cc2ncnc(-c3cn(C)nc3-c3ccccc3)c2nc1NC(=O)c1cnn(C(F)(F)F)c1 [Example 360, N-(7-methoxy-4-(1-methyl-3-phenyl-1H-pyrazol-4-yl)pyrido[3,2-d]pyrimidin-6-yl)-1-(trifluoromethyl)-1H-pyrazole-4-carboxamide]
1.7	0.9	1.5	COc1cc2ncnc(-c3cn(C)nc3-c3ccccc3)c2cc1NC(=O)c1cnc(C)c(F)c1 [Example 196, 5-fluoro-N-(7-methoxy-4-(1-methyl-3-phenyl-1H-pyrazol-4-yl)quinazolin-6-yl)-6-methylnicotinamide]
1	0.5	1.1	COc1cc2ncnc(-c3cn(C)nc3-c3ccccc3)c2cc1NC(=O)c1cnn(C)c1 [Example 294, N-(7-methoxy-4-(1-methyl-3-phenyl-1H-pyrazol-4-yl)quinazolin-6-yl)-1-methyl-1H-pyrazole-4-carboxamide]
6.1	1.6	2.5	COc1cc2ncnc(-c3cn(C)nc3-c3ccccc3)c2nc1OC(C)c1cn(C)nn1 (stereo not drawn) [Example 34, 7-methoxy-6-(1-(1-methyl-1H-1,2,3-triazol-4-yl)ethoxy)-4-(1-methyl-3-phenyl-1H-pyrazol-4-yl)pyrido[3,2-d]pyrimidine]
2.2	1.1	4.4	COc1cc2ncnc(-c3cn(C)nc3-c3ccccc3)c2nc1NC(=O)c1ccc(C2CC2)nc1 [Example 357, 6-cyclopropyl-N-(7-methoxy-4-(1-methyl-3-phenyl-1H-pyrazol-4-yl)pyrido[3,2-d]pyrimidin-6-yl)nicotinamide]
1.5	0.8	0.9	COc1cc2ncnc(-c3cn(C)nc3-c3ccccc3)c2nc1NC(=O)[C@@]12CN(C)C[C@@H]1C2(F)F (single isomer, unassigned) [Example 417, (1S,5R)-6,6-difluoro-N-(7-methoxy-4-(1-methyl-3-phenyl-1H-pyrazol-4-yl)pyrido[3,2-d]pyrimidin-6-yl)-3-methyl-3-azabicyclo[3.1.0]hexane-1-carboxamide or (1R,5S)-6,6-difluoro-N-(7-methoxy-4-(1-methyl-3-phenyl-1H-pyrazol-4-yl)pyrido[3,2-d]pyrimidin-6-yl)-3-methyl-3-azabicyclo[3.1.0]hexane-1-carboxamide]
